Results from patent US20230303540A1 (Merck Sharp & Dohme LLC, priority 2020, published 2023).

The molecules below were run against GST-tagged truncated human mutant G2019S LRRK2 (Homo sapiens, UniProt Q5S007, G2019S) (assay: LRRK2 G2019S Km ATP LanthaScreen assay). Details: 134 μM ATP (Km ATP), LRRKtide substrate, mean IC50 values; read-out: LRRK2 pIC50 (converted).
Format: biochemical
Outline: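 LanthaScreen TR-FRET read with fluorescein-LRRKtide and 134 μM ATP (Km) in Tris pH 8.5/10 mM MgCl2 buffer. The enzyme was preincubated 15 min with compound at room temperature, and the reaction ran 90 min at ambient temperature. Stopped with EDTA plus Tb anti-phospho-LRRKtide antibody; the 520/495 nm ratio gave a 4-parameter logistic IC50, mean of several runs.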
`COCC12CC(n3cc(Nc4ncc5cc(Cl)c(N6CCC7(CC6)COC(CO)C7)cc5n4)cn3)(C1)C2` (single isomer, unassigned) [Ex-3.17, (R) or (S)-{8-[6-chloro-2-({1-[3-(methoxymethyl)bicyclo[1.1.1]pentan-1-yl]-1H-pyrazol-4-yl}amino)quinazolin-7-yl]-2-oxa-8-azaspiro[4.5]decan-3-yl}methanol] was tested, and the IC50 was 2.28 nM.
`FC1(F)CN(C2CCN(c3cc4nc(Nc5cnn(C6CC6)c5Cl)ncc4cc3Cl)CC2)C1` [Ex-1.25, 6-chloro-N-(5-chloro-1-cyclopropyl-1H-pyrazol-4-yl)-7-[4-(3,3-difluoroazetidin-1-yl)piperidin-1-yl]quinazolin-2-amine] showed an IC50 of 4.33 nM.
`Cc1c(Nc2ncc3cc(Cl)c(N4CCC(C)(O)CC4)cc3n2)cnn1C1CC1(F)F` (single isomer, unassigned) [Ex-6.9, 1-(6-chloro-2-{[1-(2,2-(R) or (S)difluorocyclopropyl)-5-methyl-1H-pyrazol-4-yl]amino}quinazolin-7-yl)-4-methylpiperidin-4-ol] was tested, and the IC50 was 1.79 nM.
`CC1(O)CCN(c2cc3nc(Nc4cnn(C5(C)CC5)c4Cl)ncc3cc2Cl)CC1` [Ex-4.34, 1-(6-chloro-2-{[5-chloro-1-(1-methylcyclopropyl)-1H-pyrazol-4-yl]amino}quinazolin-7-yl)-4-methylpiperidin-4-ol] gave an IC50 of 0.625 nM.
Work on `Cc1c(Nc2ncc3ccc(N4C(=O)OC[C@@H]4C)cc3n2)cnn1C1C[C@@H](C)O[C@@H](C)C1` (single isomer, unassigned) [Ex-7.6] yielded an IC50 of 1.57 nM.
In the case of `Cc1c(Nc2ncc3cc(Cl)c(N4CCN(C5CCCC5C#N)CC4)cc3n2)cnn1C1CC1` (single isomer, unassigned) [Ex-1.6, (3S,4S or 3R,4R)-2-(4-{6-chloro-2-[(1-cyclopropyl-5-methyl-1H-pyrazol-4-yl)amino]quinazolin-7-yl}piperazin-1-yl)cyclopentane-1-carbonitrile], the IC50 is reported as 1.89 nM.
With `Cc1nn(C2CC3(C2)CN(C2COC2)C3)cc1Nc1ncc2ccc(N3C(=O)C4CCC3C4)cc2n1` (single isomer, unassigned) [Ex-8.6, (1R,4S) or (1S,4R)-2-[2-({3-methyl-1-[2-(oxetan-3-yl)-2-azaspiro[3.3]heptan-6-yl]-1H-pyrazol-4-yl}amino)quinazolin-7-yl]-2-azabicyclo[2.2.1]heptan-3-one] the IC50 was 4.86 nM.
`CC1(n2ncc(Nc3ncc4cc(Cl)c(N5CCn6cnnc6C5)cc4n3)c2Cl)CC1` [Ex-4.45, 6-chloro-N-[5-chloro-1-(1-methylcyclopropyl)-1H-pyrazol-4-yl]-7-(5,6-dihydro[1,2,4]triazolo[4,3-a]pyrazin-7(8H)-yl)quinazolin-2-amine] showed an IC50 of 1.27 nM.
With `CC1CCC12CN(c1cc3nc(Nc4cnn(C5(C)CC5)c4Cl)ncc3cc1Cl)C2` (single isomer, unassigned) [Ex-4.25, (R) or (S) 6-chloro-N-[5-chloro-1-(1-methylcyclopropyl)-1H-pyrazol-4-yl]-7-(5-methyl-2-azaspiro[3.3]heptan-2-yl)quinazolin-2-amine] the IC50 was 570 nM.
For `CC1CN(c2cc3nc(Nc4cnn(C5CC5)c4Cl)ncc3cc2Cl)CCN1C1COCC1O` (single isomer, unassigned) [Ex-12.6, (3S,4S) or (3R, 4R)-4-((R) or (S)-4-(4-(6-chloro-2-((5-chloro-1-cyclopropyl-1H-pyrazol-4-yl)amino)quinazolin-7-yl)-2-methylpiperazin-1-yl)tetrahydrofuran-3-ol], the IC50 was 13.6 nM.
Work on `CN(C)[C@@H]1CCN(c2cc3nc(Nc4cnn(CC(F)F)c4Cl)ncc3cc2Cl)C1` [Ex-1.23, 6-chloro-N-[5-chloro-1-(2,2-difluoroethyl)-1H-pyrazol-4-yl]-7-[(3R)-3-(dimethylamino)pyrrolidin-1-yl]quinazolin-2-amine] yielded an IC50 of 32.6 nM.
`Cn1ncc(Nc2ncc3cc(Cl)c(N4CCN(C5(C)COCC5O)CC4)cc3n2)c1Cl` (single isomer, unassigned) [Ex-6.36, (3S,4S) or (3R,4R) 4-[4-{6-chloro-2-[(5-chloro-1-methyl-1H-pyrazol-4-yl)amino]quinazolin-7-yl}piperazin-1-yl)-4-methyloxolan-3-ol] gave an IC50 of 11.2 nM.
Molecule `OC1COCC1N1CCN(c2cc3nc(Nc4cnn(C(F)F)c4)ncc3cc2Cl)CC1` (single isomer, unassigned) [Ex-6.47, (3S,4S) or (3R,4R) 4-(4-(6-chloro-2-((1-(difluoromethyl)-1H-pyrazol-4-yl)amino)quinazolin-7-yl)piperazin-1-yl)tetrahydrofuran-3-ol] has an IC50 of 0.85 nM.
For `Cc1cc2cnc(Nc3cnn(C4CC4)c3Cl)nc2cc1N1CCN(C2COCC2O)CC1` (single isomer, unassigned) [Ex-5.8, (3S,4S) or (3R,4R) 4-(4-{2-[(5-chloro-1-cyclopropyl-1H-pyrazol-4-yl)amino]-6-methylquinazolin-7-yl}piperazin-1-yl)oxolan-3-ol], the IC50 was 0.17 nM.
Work on `Cc1nsc(Nc2ncc3ccc(N4C(=O)OC[C@@H]4C)cc3n2)c1C` [Ex-7.12, (4S)-3-{2-[(3,4-dimethyl-1,2-thiazol-5-yl)amino]quinazolin-7-yl}-4-methyl-1,3-oxazolidin-2-one] yielded an IC50 of 0.625 nM.
`Cc1c(Nc2ncc3cc(Cl)c(N4CCN(C5COCC5O)CC4)cc3n2)cnn1C(C)(C)C#N` (single isomer, unassigned) [Ex-6.23, (3S,4S) or (3R,4R) 2-[4-({6-chloro-7-[4-(4-hydroxyoxolan-3-yl)piperazin-1-yl]quinazolin-2-yl}amino)-5-methyl-1H-pyrazol-1-yl]-2-methylpropanenitrile] gave an IC50 of 13.2 nM.
`CN1CC2(C1)CN(c1cc3nc(Nc4cnn(C5(C)CC5)c4Cl)ncc3cc1Cl)C2` [Ex-4.37, 6-chloro-N-[5-chloro-1-(1-methylcyclopropyl)-1H-pyrazol-4-yl]-7-(6-methyl-2,6-diazaspiro[3.3.]heptan-2-yl)quinazolin-2-amine] gave an IC50 of 1.24 nM.
`CC1CN(c2cc3nc(Nc4cnn(C5CC5)c4Cl)ncc3cc2Cl)CCN1C1COCC1O` (single isomer, unassigned) [Ex-12.7, (3S,4S) or (3R, 4R)-4-((R) or (S)-4-(4-(6-chloro-2-((5-chloro-1-cyclopropyl-1H-pyrazol-4-yl)amino)quinazolin-7-yl)-2-methylpiperazin-1-yl)tetrahydrofuran-3-ol] was tested, and the IC50 was 4.36 nM.
`CC1(O)CCN(c2cc3nc(Nc4cnn(C5CC5)c4)ncc3cc2Cl)CC1` [Ex-3.9, 1-{6-chloro-2-[(1-cyclopropyl-1H-pyrazol-4-yl)amino]quinazolin-7-yl}-4-methylpiperidin-4-ol] was tested, and the IC50 was 5.9 nM.
With `Cn1nc(Cl)cc1Nc1ncc2cc(Cl)c(N3CCN([C@@]4(C)COC[C@H]4O)CC3)cc2n1` (single isomer, unassigned) the IC50 was 5.97 nM.
`Cc1c(Nc2ncc3cc(Cl)c(N4CCC(C)(O)CC4)cc3n2)cnn1C1CC1` [Ex-6.4, 1-{6-chloro-2-[(1-cyclopropyl-5-methyl-1H-pyrazol-4-yl)amino}quinazolin-7-yl}-4-methylpiperidin-4-ol] gave an IC50 of 1.92 nM.
In the case of `CC1(N2CCN(c3cc4nc(Nc5ccnn5C(C)(C)C)ncc4cc3Cl)CC2)COCC1O` (single isomer, unassigned) [Ex-6.48, (3S,4S) or (3R,4R) 4-(4-(2-((1-(tert-butyl)-1H-pyrazol-5-yl)amino)-6-chloroquinazolin-7-yl)piperazin-1-yl)-4-methyltetrahydrofuran-3-ol], the IC50 is reported as 11.4 nM.
`CC1(N2CCN(c3cc4nc(Nc5cnn(CC(F)F)c5)ncc4cc3Cl)CC2)COC1` [Ex-6.1, 6-chloro-N-(1-(2,2-difluoroethyl)-1H-pyrazol-4-yl)-7-(4-(3-methyloxetan-3-yl)piperazin-1-yl)quinazolin-2-amine] showed an IC50 of 5.68 nM.
For `CC1(N2CCN(c3cc4nc(Nc5cnn(C6CC6(F)F)c5Cl)ncc4cc3Cl)CC2)CCOC1` (single isomer, unassigned) [Ex-3.60, (R or S) 6-chloro-N-(5-chloro-1-((S) or (R) 2,2-difluorocyclopropyl)-1H-pyrazol-4-yl)-7-(4-(3-methyltetra-hydrofuran-3-yl)piperazin-1-yl) quinazolin-2-amine], the IC50 was 0.2 nM.
`CC1(N2CCN(c3cc4nc(Nc5cnn(C6(C)CC6)c5)ncc4cc3Cl)CC2)COC1` [Ex-4.16, 6-chloro-N-[1-(1-methylcyclopropyl)-1H-pyrazol-4-yl]-7-[4-(3-methyloxetan-3-yl)piperazin-1-yl]quinazolin-2-amine] was tested, and the IC50 was 1.12 nM.
Work on `CC(C)Nc1cc2nc(Nc3cnn(C4CCN(C5(C)COC5)CC4)c3Cl)ncc2cc1Cl` [Ex-3.46] yielded an IC50 of 15 nM.
`COC1CCC1n1ncc(Nc2ncc3cc(Cl)c(N4CCC(C)(O)CC4)cc3n2)c1C` (single isomer, unassigned) [Ex-6.19, 1-[6-chloro-2-({1-[(1R,2R) or (1S,2S)-2-methoxycyclobutyl]-5-methyl-1H-pyrazol-4-yl}amino)quinazolin-7-yl]-4-methylpiperidin-4-ol] showed an IC50 of 2.17 nM.
With `FC1CN(C2CCN(c3cc4nc(Nc5cnn(C6CC6)c5Cl)ncc4cc3Cl)CC2)C1` [Ex-1.27, 6-chloro-N-(5-chloro-1-cyclopropyl-1H-pyrazol-4-yl)-7-[4-(3-fluoroazetidin-1-yl)piperidin-1-yl]quinazolin-2-amine] the IC50 was 0.778 nM.
With `OC1COCC12CCN(c1cc3nc(Nc4cnn(C5CC5(F)F)c4Cl)ncc3cc1Cl)CC2` (single isomer, unassigned) [Ex-3.56] the IC50 was 3.56 nM.
`CCn1ncc(Nc2ncc3ccc(N4C(=O)OC[C@@H]4C)cc3n2)c1C` [Ex-7.1, (S)-3-(2-((1-ethyl-5-methyl-1H-pyrazol-4-yl)amino)quinazolin-7-yl)-4-methyloxazolidin-2-one] gave an IC50 of 0.989 nM.
Work on `O[C@@H]1COC[C@@H]1N1CCN(c2cc3nc(Nc4cnn(C5CC5)c4Cl)ncc3cc2Cl)CC1` (single isomer, unassigned) [Ex-3.52, (3R,4R) or (3S,4S) 4-(4-{6-chloro-2-[(5-chloro-1-cyclopropyl-1H-pyrazol-4-yl)amino]quinazolin-7-yl}piperazin-1-yl)oxolan-3-ol] yielded an IC50 of 0.887 nM.
